42 molecules from US20170037028A1 (BAYER PHARMA AKTIENGESELLSCHAFT, priority 2013, published 2017) can be followed below.

One assay addresses T1, GLUT1 (Homo sapiens, UniProt P11166).
T1 sequence (P11166 1-492): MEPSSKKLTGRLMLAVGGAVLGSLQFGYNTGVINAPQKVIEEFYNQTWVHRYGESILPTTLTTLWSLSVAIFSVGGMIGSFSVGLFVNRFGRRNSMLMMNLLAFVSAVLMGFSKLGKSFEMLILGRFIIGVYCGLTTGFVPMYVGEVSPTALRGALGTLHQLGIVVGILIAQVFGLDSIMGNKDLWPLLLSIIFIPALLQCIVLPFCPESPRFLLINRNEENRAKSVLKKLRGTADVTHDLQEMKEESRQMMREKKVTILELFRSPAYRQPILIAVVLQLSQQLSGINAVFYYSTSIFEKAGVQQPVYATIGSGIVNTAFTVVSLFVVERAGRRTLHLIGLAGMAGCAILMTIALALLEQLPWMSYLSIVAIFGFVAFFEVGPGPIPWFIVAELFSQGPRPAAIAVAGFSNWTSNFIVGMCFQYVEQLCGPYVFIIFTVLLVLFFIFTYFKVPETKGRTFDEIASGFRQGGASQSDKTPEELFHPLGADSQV
The assay is described as follows: Indirect measurement of GLUT1 activity by quantification of intracellular ATP levels (glucose induced ATP increase). The format is cell-based. The settings on record: DLD1 cells; 0.1 mM glucose, 1 μM Rotenone, 15 min; CellTiter-Glo ATP readout; IC50 values standardized to cytochalasin B IC50 values; read-out: IC50 regarding glucose induced ATP increase (GLUT1 inhibition). Details: endogenous in cells; host or cells: DLD1 or CHO-K1. The gist of the method:
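DLD1 or CHO-K1 cells were starved overnight in glucose-free medium with 1% FCS, then combined with an oxidative phosphorylation inhibitor. GLUT1 activity was read as glucose-induced ATP increase, GLUT2 as fructose-induced. Intracellular ATP was quantified by CellTiter-Glo luminescence.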
Background: In ATP-based viability assays light output follows the ATP content of the culture.
As for “6-cyano N^4-[1-(4-cyanobenzyl)-5-methyl-3-(trifluoromethyl)-1H-pyrazol-4-yl]quinoline-2,4-dicarboxamide [Example 337]”, the half-inhibitory concentration (IC50) (usually the concentration that gives 50% inhibition) came to 0.0019 µM.

Still in this assay, the particulars now being: read-out: IC50 regarding glucose induced ATP increase (GLUT1 inhibition).
Take `Cc1nn(Cc2c(F)cccc2F)c(C)c1NC(=O)c1cc(C(F)(F)F)nc2c(Cl)cc(Cl)cc12` [Example 20, 6,8-dichloro-N-[1-(2,6-difluorobenzyl)-3,5-dimethyl-1H-pyrazol-4-yl]-2-(trifluoromethyl)quinoline-4-carboxamide]: the IC50 came to 0.0127 µM.

As for `Cc1nn(Cc2ccc(C(=O)NCCOc3ccccc3F)cc2)c(C)c1NC(=O)c1cc(C(F)(F)F)nc2ccc(Br)cc12` [Example 1084], the half-inhibitory concentration (IC50) was 0.0308 µM.

In the case of `COc1cc(C(=O)Nc2c(C)nn(Cc3cccc(F)c3)c2C)c2ccccc2n1` [Example 87, N-[1-(3-fluorobenzyl)-3,5-dimethyl-1H-pyrazol-4-yl]-2-methoxyquinoline-4-carboxamide], the 50% inhibitory concentration (IC50) worked out at 0.267 µM.

For the molecule `Cc1c(NC(=O)c2cc(C(N)=O)nc3ccccc23)c(C(F)(F)F)nn1Cc1cccc(S(C)(=O)=O)c1` [Example 1636], the IC50 came to 0.292 µM.

Consider `CCc1nc(Cn2nc(C)c(NC(=O)c3cc(C(N)=O)nc4ccccc34)c2C)no1` [Example 1500], for which the concentration for half-maximal inhibition (IC50) was found to be 0.0201 µM.

Consider `Cc1nn(Cc2ccc(C(F)(F)F)cc2)c(C)c1NC(=O)c1cc(C(F)(F)F)nc2c(Cl)cc(Cl)cc12` [Example 1243], for which the half-maximal inhibitory concentration (IC50) worked out at 1.59 µM.

As for `Cc1nn(Cc2ccc(C(=O)NC(CO)CO)cn2)c(C)c1NC(=O)c1cc(C(F)(F)F)nc2ccc(Br)cc12` [Example 1230], the IC50 was 1 µM.

For the molecule `Cc1nn(Cc2ccc(C(=O)NCc3ccncc3)cc2)c(C)c1NC(=O)c1cc(C(F)(F)F)nc2ccc(Br)cc12` [Example 1021], the half-maximal inhibitory concentration (IC50) was 0.0023 µM.

For `Cc1c(NC(=O)c2cc(C(N)=O)nc3ccccc23)c(C(F)(F)F)nn1Cc1ccncc1` [Example 1367], the half-inhibitory concentration (IC50) worked out at 0.275 µM.

`Cc1nn(Cc2ccc(F)cc2)c(C)c1NC(=O)c1ccnc2ccccc12` [Example 211, N-[1-(4-fluorobenzyl)-3,5-dimethyl-1H-pyrazol-4-yl]quinoline-4-carboxamide]: the IC50 was found to be 0.957 µM.

As to `COc1cc(C(=O)Nc2c(C)nn(Cc3ncccc3C)c2C)c2ccccc2n1` [Example 1248], the IC50 was determined as 1.67 µM.

On to `COc1ccc(Cn2nc(C)c(NC(=O)c3cc(C(N)=O)nc4cc(F)c(Cl)cc34)c2C)cc1` [Example 214, 6-chloro-7-fluoro-N^4-[1-(4-methoxybenzyl)-3,5-dimethyl-1H-pyrazol-4-yl]quinoline-2,4-dicarboxamide], for which the half-inhibitory concentration (IC50) came out at 0.0011 µM.

For `Cc1c(NC(=O)c2cc(C(N)=O)nc3cc(F)ccc23)c(C(F)(F)F)nn1Cc1ncc(C#N)cn1` [Example 423, N^4-{1-[(5-cyanopyrimidin-2-yl)methyl]-5-methyl-3-(trifluoromethyl)-1H-pyrazol-4-yl}-7-fluoroquinoline-2,4-dicarboxamide], the IC50 worked out at 0.0067 µM.

Turning to `Cc1cc2c(C(=O)Nc3c(C)nn(Cc4ccc(C#N)cc4)c3C)cc(C(N)=O)nc2cc1F` [Example 256, N^4-[1-(4-cyanobenzyl)-3,5-dimethyl-1H-pyrazol-4-yl]-7-fluoro-6-methylquinoline-2,4-dicarboxamide], the concentration for half-maximal inhibition (IC50) was found to be 0.0024 µM.

On to `Cc1c(NC(=O)c2cc(C(N)=O)nc3cc(F)c(Cl)cc23)c(C(F)(F)F)nn1Cc1ccc(CC#N)cc1` [Example 1594], for which the IC50 amounted to 0.0011 µM.

Take `CC(=O)c1ccc(Cn2nc(C(F)(F)F)c(NC(=O)c3cc(C(N)=O)nc4ccccc34)c2C)cc1` [Example 1604]: the IC50 was 0.0047 µM.

In the case of `CCOC(=O)c1nn(Cc2ccc(F)cc2)c(C)c1NC(=O)c1cc(C(F)(F)F)nc2ccc(Br)cc12` [Example 1225], the half-inhibitory concentration (IC50) was 0.914 µM.

With `CC(=O)c1cccc(Cn2nc(C)c(NC(=O)c3cc(C(N)=O)nc4ccccc34)c2C)c1` [Example 1626], the half-maximal inhibitory concentration (IC50) is 0.107 µM.

As to `CSc1cc(C(=O)Nc2c(C)nn(Cc3ccc(C#N)cc3)c2C)c2ccccc2n1` [Example 381, N-[1-(4-cyanobenzyl)-3,5-dimethyl-1H-pyrazol-4-yl]-2-(methylsulfanyl)quinoline-4-carboxamide], the IC50 is 0.009 µM.

For `Cc1nn(C(C)CCc2ccc(F)cc2)c(C)c1NC(=O)c1cc(C(N)=O)nc2ccccc12` (racemic) [Example 1379], the IC50 came out at 0.0394 µM.

On to `COC(=O)c1ccc(Cn2nc(C)c(NC(=O)c3cc(C(F)(F)F)nc4ccc(Br)cc34)c2C)cc1` [Example 131, methyl 4-{[4-({[6-bromo-2-(trifluoromethyl)quinolin-4-yl]carbonyl}amino)-3,5-dimethyl-1H-pyrazol-1-yl]methyl}benzoate], for which the half-maximal inhibitory concentration (IC50) worked out at 0.0083 µM.

For `Cc1nn(Cc2cccc(OC(F)(F)F)c2)c(C)c1NC(=O)c1cc(C(F)(F)F)nc2c(Cl)cc(Cl)cc12` [Example 93, 6,8-dichloro-N-{3,5-dimethyl-1-[3-(trifluoromethoxy)benzyl]-1H-pyrazol-4-yl}-2-(trifluoromethyl)quinoline-4-carboxamide], the concentration for half-maximal inhibition (IC50) amounted to 0.292 µM.

With `Cc1nn(Cc2ccc(F)cc2)c(C)c1NC(=O)c1cc(C(F)(F)F)nc2c(Cl)cc(Cl)cc12` [Example 25, 6,8-dichloro-N-[1-(4-fluorobenzyl)-3,5-dimethyl-1H-pyrazol-4-yl]-2-(trifluoromethyl)quinoline-4-carboxamide], the IC50 was 0.0157 µM.

As to `Cc1nn(Cc2ccc(C(=O)O)cc2)c(C)c1NC(=O)c1cc(C(N)=O)nc2cc(F)ccc12` [Example 1423], the IC50 was determined as 0.0296 µM.

`Cc1nn(CCCc2ccc(C#N)cc2)c(C)c1NC(=O)c1cc(C(N)=O)nc2cc(F)c(Cl)cc12` [Example 346, 6-chloro-N^4-{1-[3-(4-cyanophenyl)propyl]-3,5-dimethyl-1H-pyrazol-4-yl}-7-fluoroquinoline-2,4-dicarboxamide]: the half-inhibitory concentration (IC50) was found to be 0.0006 µM.

With `Cc1nn(Cc2ccc(C(=O)NCc3nccs3)cc2)c(C)c1NC(=O)c1cc(C(F)(F)F)nc2ccc(Br)cc12` [Example 1130], the IC50 turned out to be 0.0866 µM.

Regarding `Cc1nn(CCc2ccc(F)cc2)c(C)c1NC(=O)c1cc(C(N)=O)nc2ccccc12` [Example 1100], the IC50 amounted to 0.0421 µM.

For the molecule `CNC(=O)N1CCC(Cn2nc(C)c(NC(=O)c3cc(C(F)(F)F)nc4ccc(Br)cc34)c2C)CC1` [Example 1111], the IC50 was 0.0568 µM.

`Cc1cc(Cn2nc(C(F)(F)F)c(NC(=O)c3cc(C(N)=O)nc4cc(F)ccc34)c2C)no1` [Example 1539]: the IC50 came to 0.0473 µM.

Turning to `Cc1nn(CC2CCN(S(C)(=O)=O)CC2)c(C)c1NC(=O)c1cc(C(N)=O)nc2ccccc12` [Example 1094], the 50% inhibitory concentration (IC50) was 0.0393 µM.

For the molecule `COc1cc(C(=O)Nc2c(C)nn(Cc3ccc(C#N)cc3)c2C)c2cc(F)ccc2n1` [Example 265, N-[1-(4-cyanobenzyl)-3,5-dimethyl-1H-pyrazol-4-yl]-6-fluoro-2-methoxyquinoline-4-carboxamide], the half-maximal inhibitory concentration (IC50) is 0.0066 µM.

For the molecule `Cc1c(NC(=O)c2cc(C(N)=O)nc3cc(F)ccc23)c(C(F)(F)F)nn1C(C)c1ccccc1` (racemic) [Example 334, (±)-7-fluoro-N^4-[5-methyl-1-(1-phenylethyl)-3-(trifluoromethyl)-1H-pyrazol-4-yl]quinoline-2,4-dicarboxamide], the half-maximal inhibitory concentration (IC50) amounted to 0.0075 µM.

In the case of `Cc1c(NC(=O)c2cc(C(N)=O)nc3cc(F)c(Cl)cc23)c(C(F)(F)F)nn1Cc1cccc(C(N)=O)c1` [Example 1603], the 50% inhibitory concentration (IC50) stood at 0.0058 µM.

For the molecule `Cc1c(NC(=O)c2cc(C(N)=O)nc3ccccc23)c(C(F)(F)F)nn1Cc1ccc(C#N)cc1F` [Example 302, N^4-[1-(4-cyano-2-fluorobenzyl)-5-methyl-3-(trifluoromethyl)-1H-pyrazol-4-yl]quinoline-2,4-dicarboxamide], the IC50 turned out to be 0.0011 µM.

`Cc1nn(Cc2ccc(C(=O)NCCCC(C)(C)CO)cc2)c(C)c1NC(=O)c1cc(C(F)(F)F)nc2ccc(Br)cc12` [Example 1107]: the IC50 turned out to be 0.0522 µM.

In the case of `Cc1nn(CCN2CCOCC2)c(C)c1NC(=O)c1cc(C(F)(F)F)nc2ccc(Br)cc12` [Example 1218], the IC50 was 0.694 µM.

For `Cc1nn(Cc2ncccc2C#N)c(C)c1NC(=O)c1cc(C(F)(F)F)nc2ccc(Br)cc12` [Example 234, 6-bromo-N-{1-[(3-cyanopyridin-2-yl)methyl]-3,5-dimethyl-1H-pyrazol-4-yl}-2-(trifluoromethyl)quinoline-4-carboxamide], the half-inhibitory concentration (IC50) was found to be 0.0092 µM.

On to `CCOC(=O)c1c(NC(=O)c2cc(C(F)(F)F)nc3ccc(Br)cc23)c(C)nn1Cc1ccc(F)cc1` [Example 1255], for which the half-maximal inhibitory concentration (IC50) was found to be 2.01 µM.

In the case of `Cc1nn(Cc2ccccc2F)c(C)c1NC(=O)c1cc(C(F)(F)F)nc2ccc(Br)cc12` [Example 74, 6-bromo-N-[1-(2-fluorobenzyl)-3,5-dimethyl-1H-pyrazol-4-yl]-2-(trifluoromethyl)quinoline-4-carboxamide], the IC50 worked out at 0.181 µM.

Turning to `Cc1nn(Cc2c(F)cccc2F)c(C)c1NC(=O)c1cc(C(N)=O)nc2cc(F)ccc12` [Example 1631], the IC50 is 0.0065 µM.

On to `Cc1c(NC(=O)c2cc(C(N)=O)nc3cc(F)ccc23)c(C(F)(F)F)nn1Cc1ccc(C(F)(F)F)cc1` [Example 1590], for which the 50% inhibitory concentration (IC50) came to 0.0098 µM.
